Assay results: ChEMBL document CHEMBL1201862, “PubChem BioAssay data set” (2004)
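All cell lines were grown in 96-well plates and treated with compound for 48 hours. Abbreviation: GI50, concentration required for 50% inhibition of growth.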 Calls of active or inactive are those of the source. Rule as the data show it: active = GI50 up to about 1.1 µM and inactive = higher.

What was measured:
Assay in all cases: DTP human tumour cell line panel, 48 h
M14 = tested on: M14
CCRF-CEM = tested on: CCRF-CEM
OVCAR-5 = tested on: OVCAR-5
LOX IMVI = tested on: LOX IMVI
K562 = tested on: K562
SF-268 = tested on: SF-268
MDA-MB-435 = tested on: MDA-MB-435
SNB-19 = tested on: SNB-19
MDA-N = tested on: MDA-N
ACHN = tested on: ACHN
U-251 = tested on: U-251
OVCAR-3 = tested on: OVCAR-3
RXF 393 = tested on: RXF 393
MDA-MB-231 = tested on: MDA-MB-231
UACC-62 = tested on: UACC-62
HT-29 = tested on: HT-29
BT-549 = tested on: BT-549
DU-145 = tested on: DU-145
SF-539 = tested on: SF-539
RPMI-8226 = tested on: RPMI-8226
A498 = tested on: A498
HOP-62 = tested on: HOP-62
TK-10 = tested on: TK-10
SNB-75 = tested on: SNB-75
UACC-257 = tested on: UACC-257
UO-31 = tested on: UO-31
SK-MEL-2 = tested on: SK-MEL-2
Hs-578T = tested on: Hs-578T
HCT-116 = tested on: HCT-116
HCC 2998 = tested on: HCC 2998
KM12 = tested on: KM12
MOLT-4 = tested on: MOLT-4
Malme-3M = tested on: Malme-3M
EKVX = tested on: EKVX
NCI-H226 = tested on: NCI-H226
NCI-H460 = tested on: NCI-H460
SK-MEL-28 = tested on: SK-MEL-28
NCI-H23 = tested on: NCI-H23
MCF7 = tested on: MCF7
NCI-H522 = tested on: NCI-H522
T47D = tested on: T47D
HCT-15 = tested on: HCT-15
SK-OV-3 = tested on: SK-OV-3
HL-60 = tested on: HL-60
SR = tested on: SR
SN12C = tested on: SN12C
IGROV-1 = tested on: IGROV-1
COLO 205 = tested on: COLO 205
786-0 = tested on: 786-0
SW-620 = tested on: SW-620
A549 = tested on: A549
OVCAR-8 = tested on: OVCAR-8
OVCAR-4 = tested on: OVCAR-4
CAKI-1 = tested on: CAKI-1
PC-3 = tested on: PC-3
SF-295 = tested on: SF-295
NCI/ADR-RES = tested on: NCI/ADR-RES
SK-MEL-5 = tested on: SK-MEL-5
HOP-92 = tested on: HOP-92

With CCC(=O)NC(OCC1(CC)COC1)(C(F)(F)F)C(F)(F)F the GI50 (M14) was > 100 µM (inactive), the GI50 (CCRF-CEM) was > 100 µM (inactive) and the GI50 (OVCAR-5) was > 100 µM (inactive). The GI50 (LOX IMVI) was > 100 µM (inactive), the GI50 (K562) was > 100 µM (inactive) and the GI50 (SF-268) was > 100 µM (inactive). For the same molecule, the GI50 (MDA-MB-435) was > 100 µM (inactive), the GI50 (SNB-19) was > 100 µM (inactive) and the GI50 (MDA-N) was > 100 µM (inactive). For the same molecule, the GI50 (ACHN) was > 100 µM (inactive), the GI50 (U-251) was > 100 µM (inactive) and the GI50 (OVCAR-3) was > 100 µM (inactive). The GI50 (RXF 393) was 92.3 µM (inactive), the GI50 (MDA-MB-231) was > 100 µM (inactive) and the GI50 (UACC-62) was > 100 µM (inactive). The GI50 (HT-29) was > 100 µM (inactive), the GI50 (BT-549) was > 100 µM (inactive) and the GI50 (DU-145) was > 100 µM (inactive). The GI50 (SF-539) was > 100 µM (inactive), the GI50 (RPMI-8226) was > 100 µM (inactive) and the GI50 (A498) was > 100 µM (inactive). The GI50 (HOP-62) was > 100 µM (inactive), the GI50 (TK-10) was > 100 µM (inactive) and the GI50 (SNB-75) was > 100 µM (inactive). The GI50 (UACC-257) was > 100 µM (inactive), the GI50 (UO-31) was > 100 µM (inactive) and the GI50 (SK-MEL-2) was > 100 µM (inactive). For the same molecule, the GI50 (Hs-578T) was > 100 µM (inactive), the GI50 (HCT-116) was > 100 µM (inactive) and the GI50 (HCC 2998) was > 100 µM (inactive). The GI50 (KM12) was > 100 µM (inactive), the GI50 (MOLT-4) was > 100 µM (inactive) and the GI50 (Malme-3M) was > 100 µM (inactive). For the same molecule, the GI50 (EKVX) was > 100 µM (inactive), the GI50 (NCI-H226) was > 100 µM (inactive) and the GI50 (NCI-H460) was > 100 µM (inactive). The GI50 (SK-MEL-28) was > 100 µM (inactive), the GI50 (NCI-H23) was > 100 µM (inactive) and the GI50 (MCF7) was > 100 µM (inactive). For the same molecule, the GI50 (NCI-H522) was > 100 µM (inactive), the GI50 (T47D) was > 100 µM (inactive) and the GI50 (HCT-15) was over 100 µM. The GI50 (SK-OV-3) was > 100 µM (inactive), the GI50 (HL-60) was > 100 µM (inactive) and the GI50 (SR) was > 100 µM (inactive). The GI50 (SN12C) was > 100 µM (inactive).
In the case of O=C(Nc1ccccc1)N1N=C(c2ccccc2)C1c1ccccc1 (stereo not drawn), the GI50 (IGROV-1) is reported as 40.4 µM (inactive), the GI50 (M14) is reported as 20 µM (inactive) and the GI50 (OVCAR-5) is reported as 23.2 µM (inactive). For the same molecule, the GI50 (LOX IMVI) was 29.9 µM (inactive), the GI50 (COLO 205) was 41.7 µM (inactive) and the GI50 (SF-268) was 21.1 µM (inactive). For the same molecule, the GI50 (786-0) was 16.4 µM (inactive), the GI50 (SW-620) was 35.8 µM (inactive) and the GI50 (A549) was 25.3 µM (inactive). The GI50 (OVCAR-8) was 33.8 µM (inactive), the GI50 (SNB-19) was 27.7 µM (inactive) and the GI50 (MDA-N) was 27.4 µM (inactive). The GI50 (ACHN) was 22 µM (inactive), the GI50 (U-251) was 36.2 µM (inactive) and the GI50 (OVCAR-3) was 20.7 µM (inactive). The GI50 (OVCAR-4) was 41.1 µM (inactive), the GI50 (RXF 393) was 17.3 µM (inactive) and the GI50 (MDA-MB-231) was 62.1 µM (inactive). The GI50 (UACC-62) was 20.2 µM (inactive), the GI50 (HT-29) was 20.5 µM (inactive) and the GI50 (BT-549) was 23.2 µM (inactive). For the same molecule, the GI50 (CAKI-1) was 30.2 µM (inactive), the GI50 (DU-145) was > 100 µM (inactive) and the GI50 (SF-539) was 14.9 µM (inactive). The GI50 (RPMI-8226) was 14 µM (inactive), the GI50 (A498) was 18.5 µM (inactive) and the GI50 (TK-10) was 36.1 µM (inactive). The GI50 (SNB-75) was 15.8 µM (inactive), the GI50 (UACC-257) was 31.8 µM (inactive) and the GI50 (UO-31) was 15.2 µM (inactive). For the same molecule, the GI50 (Hs-578T) was 24.2 µM (inactive), the GI50 (HCT-116) was 17.9 µM (inactive) and the GI50 (HCC 2998) was 31.3 µM (inactive). The GI50 (PC-3) was 18.8 µM (inactive), the GI50 (SF-295) was 24.3 µM (inactive) and the GI50 (KM12) was 29.9 µM (inactive). The GI50 (NCI/ADR-RES) was 26.4 µM (inactive), the GI50 (Malme-3M) was 30.5 µM (inactive) and the GI50 (EKVX) was 40.4 µM (inactive). For the same molecule, the GI50 (NCI-H226) was 18.8 µM (inactive), the GI50 (SK-MEL-5) was 22.1 µM (inactive) and the GI50 (NCI-H460) was 42.3 µM (inactive). The GI50 (SK-MEL-28) was 53.7 µM (inactive), the GI50 (NCI-H23) was 23.3 µM (inactive) and the GI50 (MCF7) was 20.2 µM (inactive). For the same molecule, the GI50 (HOP-92) was 23.4 µM (inactive), the GI50 (NCI-H522) was 19.9 µM (inactive) and the GI50 (T47D) was 59.6 µM (inactive). For the same molecule, the GI50 (HCT-15) was 33.8 µM, the GI50 (SK-OV-3) was 90.8 µM (inactive) and the GI50 (HL-60) was 21.9 µM (inactive). The GI50 (SN12C) was 48 µM (inactive).
